Measurements as given in publication PMC7477610 (Travel Medicine and Infectious Disease, 2020).
“And” between values parts separate entries of the source, which are not always exact repeats. Identical values can stand only once. Like-named read-outs stand apart in the source and are kept apart here.

How the values were obtained:
SARS-CoV-1 [1] = details: mouse; cited from earlier work
[2] = human, uptake of 612 mg, extrapolated from 0.07% of dose in rat lung
SARS-CoV-1 [3] = details: read-out: EC50 against SARS-CoV-1; cited from earlier work
dengue virus type 2 = details: cited from earlier work
Cytotoxicity assay = format: cell-based; details: African green monkey, Vero E6 cells
SARS-CoV-2 [4] = details: read-out: EC50 against SARS-CoV-2; Vero E6 cells, MOI of 0.2; cited from earlier work
[5] = test system: SARS-CoV-2 (clinically isolated strain IHUMI-3); format: cell-based; details: for Selectivity index (SI), ratio CC50/EC50: Vero E6 cells
[6] = can go up; cited from earlier work
[7] = cited from earlier work
[8] = cited from earlier work; remark: listed apart in the source
[9] = at 6 h; cited from earlier work
SARS-CoV-2 [10] = details: 10 μM, Vero E6 cells infected by SARS-CoV-2; cited from earlier work
Ebola virus [11] = details: mouse, in vivo; cited from earlier work
[12] = cited from earlier work; remark: listed apart in the source
Ebola virus [13] = details: read-out: EC50 against Ebola virus; cited from earlier work
SARS-CoV-2 [14] = details: read-out: EC50 against SARS-CoV-2; in vitro; cited from earlier work
feline coronavirus = details: read-out: EC50 against feline coronavirus; cited from earlier work
[15] = amodiaquine given at 612 mg day
[16] = rats, single oral dose of 2 mg (10 mg/kg)

Q: Which results are given for `CCN(CC)Cc1cc(Nc2ccnc3cc(Cl)ccc23)ccc1O` [Amodiaquine]?
A: In vivo activity on SARS-CoV-1 (SARS-CoV-1 [1]): inactive; Amount that would be found in lungs [2]: 428 µg; EC50 (SARS-CoV-1 [3]): 2.5 µM; EC50 (dengue virus type 2; read-out: EC50, dengue virus type 2 replication): 1.08 µM; EC90 (dengue virus type 2; read-out: EC90, dengue virus type 2 replication): 2.69 µM

Q: What does the source list for `CCN(CC)CCCC(C)Nc1ccnc2cc(Cl)ccc12` (stereo not shown) [Chloroquine]?
A: In vivo activity on SARS-CoV-1 (SARS-CoV-1 [1]): inactive; CC50 at 48 h (Cytotoxicity assay): > 100 µM; EC50 (SARS-CoV-2 [4]): 7.1 µM; Selectivity index (SI), ratio CC50/EC50 [5]: >47; EC50 (SARS-CoV-1 [3]): 2.5 µM; Concentration in the lung [6]: up to 280 mg/kg; Adverse events [7]: 56%; Plasma concentration ([8]; chloroquine 100 mg day, prophylaxis of malaria): 0.01–0.4 mg/l and 0.03–1.25 μM

Q: Which CC50 at 48 h (Cytotoxicity assay) does the source give for `CCNCc1cc(Nc2ccnc3cc(Cl)ccc23)ccc1O` [Desethylamodiaquine] here?
A: 86.1 ± 10.5 µM

Q: What about the “Plasma concentration of desethylamodiaquine” value [8, 15] of the same compound?
A: 753 ng/ml and around 1.9 μM

Q: And the t1/2 [8, 15]?
A: 8.9 days

Q: For `C[C@H]1[C@@H](O)O[C@@H]2O[C@@]3(C)CC[C@H]4[C@H](C)CC[C@@H]1[C@@]24OO3` [Dihydroartemisinin], which CC50 at 48 h (Cytotoxicity assay) is on record?
A: 58.9 ± 7.4 µM

Q: And the “Selectivity index (SI), ratio CC50/EC50” value [5]?
A: 3

Q: For `CCN(CCO)CCCC(C)Nc1ccnc2cc(Cl)ccc12` (stereo not shown) [Hydroxychloroquine], which CC50 at 48 h (Cytotoxicity assay) is on record?
A: 20.4 ± 1.4 µM

Q: And the EC50 (SARS-CoV-2 [4])?
A: 17.3 µM

Q: What about the Cmax ([8]; oral uptake of 400 mg) of the same compound?
A: 1220 nM

Q: And the Blood concentration [9]?
A: around 0.3 μM

Q: And the Lung concentration [9]?
A: 7.8 µM

Q: With `CCCCN(CCCC)CC(O)c1cc(Cl)cc2c1-c1ccc(Cl)cc1/C2=C/c1ccc(Cl)cc1` (stereo not shown) [Lumefantrine] as the compound, how does the CC50 at 48 h (Cytotoxicity assay) read?
A: 87.7 ± 11.9 µM

Q: What about the “Selectivity index (SI), ratio CC50/EC50” value [5] of the same compound?
A: 4

Q: And the Cmax ([8]; single oral dose 480 mg)?
A: 1100 nM

Q: Which CC50 at 48 h (Cytotoxicity assay) does the source give for `OC(c1cc(C(F)(F)F)nc2c(C(F)(F)F)cccc12)C1CCCCN1` (stereo not shown) [Mefloquine] here?
A: 14.4 ± 2.1 µM

Q: And the “Inhibition of cytopathic effect” value (SARS-CoV-2 [10])?
A: inhibited completely

Q: With `Clc1ccc2c(N3CCN(CCCN4CCN(c5ccnc6cc(Cl)ccc56)CC4)CC3)ccnc2c1` [Piperaquine] as the compound, how does the CC50 at 48 h (Cytotoxicity assay) read?
A: 55 ± 4.8 µM

Q: What about the “Selectivity index (SI), ratio CC50/EC50” value [5] of the same compound?
A: 2

Q: With `COc1ccc2nc3cc(Cl)ccc3c(Nc3cc(CN4CCCC4)c(O)c(CN4CCCC4)c3)c2n1` [Pyronaridine] as the compound, how does the CC50 at 48 h (Cytotoxicity assay) read?
A: 15.9 ± 1.6 µM

Q: And the “Protection against Ebola virus infection” value (Ebola virus [11])?
A: protected mice

Q: And the “Selectivity index (SI), ratio CC50/EC50” value [5]?
A: 22

Q: And the “Blood Cmax” value [12, 16]?
A: 223 ng/mL

Q: What about the “Lung Cmax” value [12, 16] of the same compound?
A: 36.4 µg/g

Q: What about the “Lung Cmax relative to blood Cmax (more concentrated)” value [12, 16] of the same compound?
A: 165

Q: What about the Adverse events [7] of the same compound?
A: around 38%

Q: What about the t1/2 ([8]; 720 mg day, human) of the same compound?
A: 33.5 days

Q: And the Plasma concentration ([8]; 720 mg day, human, listed as Pyronaridine tetraphosphate)?
A: 271 ng/ml and around 0.3 μM

Q: And the EC50 (Ebola virus [13])?
A: 1.14 µM

Q: With `C=C[C@H]1C[N@@]2CC[C@H]1C[C@H]2[C@H](O)c1ccnc2ccc(OC)cc12` [Quinine] as the compound, how does the CC50 at 48 h (Cytotoxicity assay) read?
A: > 100 µM

Q: And the Concentration lung/blood ratio ([12]; rat, intravenous dose of 10 mg/kg)?
A: 246

Q: What about the “Blood Cmax” value ([8]; 600 mg single oral dose of quinine sulphate) of the same compound?
A: around 3.5 mg/l

Q: What about the Cmax ([8]; read-out: Blood Cmax, 600 mg single oral dose of quinine sulphate) of the same compound?
A: ~8500 nM

Q: Which EC50 (SARS-CoV-2 [14]) does the source give for `C[C@H]1c2cccc(O)c2C(=O)C2=C(O)[C@]3(O)C(=O)C(C(N)=O)=C(O)[C@@H](N(C)C)[C@@H]3[C@@H](O)[C@@H]21` [doxycycline] here?
A: 5.6 µM

Q: For Ferroquine, which EC50 (feline coronavirus) is on record?
A: 2.9 µM

Q: What about the EC90 ([5]; read-out: 90% effective concentration (EC90) against SARS-CoV-2) of the same compound?
A: 2.4 ± 0.9 µM

Q: What about the EC50 ([5]; read-out: Median effective concentration (EC50) against SARS-CoV-2) of the same compound?
A: 1.5 ± 0.3 µM

Q: What about the EC50 (SARS-CoV-1 [3]) of the same compound?
A: 1.4 µM

Q: What about the “Mean Cmax (maximum blood concentration)” value ([8]; oral uptake of 800 mg) of the same compound?
A: 155 ng/mL

Q: What about the “t1/2 (elimination half-life)” value ([8]; oral uptake of 800 mg) of the same compound?
A: 10.9 days

Q: What about the Cmax ([8]; read-out: Mean Cmax (maximum blood concentration), oral uptake of 800 mg) of the same compound?
A: ~600 nM
